Literature values as cited in patent publication US12419848B2, “Treatment of hyperinflammatory syndrome” (priority 2020, dated 2025).

How the values were obtained:
[1] = target: T1, P2X7R (Homo sapiens, UniProt Q99572); settings: read-out: EC50 to activate P2X7R; cited from earlier work
T1 sequence (Q99572 1-595): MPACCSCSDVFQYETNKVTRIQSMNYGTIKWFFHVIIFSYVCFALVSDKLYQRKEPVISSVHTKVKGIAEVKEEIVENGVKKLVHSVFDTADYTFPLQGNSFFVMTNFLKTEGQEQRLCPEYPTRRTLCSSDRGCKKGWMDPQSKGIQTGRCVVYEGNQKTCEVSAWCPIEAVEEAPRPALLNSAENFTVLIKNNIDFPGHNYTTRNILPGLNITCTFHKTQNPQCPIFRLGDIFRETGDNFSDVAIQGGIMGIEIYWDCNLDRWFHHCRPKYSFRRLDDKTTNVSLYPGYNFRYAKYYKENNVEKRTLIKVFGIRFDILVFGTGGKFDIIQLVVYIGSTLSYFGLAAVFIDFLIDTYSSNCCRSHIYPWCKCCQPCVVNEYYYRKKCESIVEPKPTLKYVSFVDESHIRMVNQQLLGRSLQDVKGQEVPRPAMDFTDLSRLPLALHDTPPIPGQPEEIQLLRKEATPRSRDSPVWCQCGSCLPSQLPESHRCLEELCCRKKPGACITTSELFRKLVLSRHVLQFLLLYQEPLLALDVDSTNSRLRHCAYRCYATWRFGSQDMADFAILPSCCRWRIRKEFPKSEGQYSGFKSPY

[2] = target: P1 receptors; settings: cited from earlier work

| Compound | EC50 [1] | EC50 (extracellular concentration for half maximal effect) [2] |
| --- | --- | --- |
| Nc1ncnc2c1ncn2[C@@H]1O[C@H](COP(=O)(O)OP(=O)(O)OP(=O)(O)O)[C@@H](O)[C@H]1O [ATP] | > 1 mM |  |
| Nc1ncnc2c1ncn2[C@@H]1O[C@H](CO)[C@@H](O)[C@H]1O [adenosine] |  | nanomolar range |
